Like-named read-outs stand apart in the source and are kept apart here.
What was measured:
[1] = test system: HepG2 cells; assay: Intracellular ATP content (cell viability) assay; format: cell-based, human
[2] = test system: mitochondrial respiratory chain complex I; format: biochemical, rat; details: at 20μM
[3] = test system: Nrf2/ARE (ARE-bla HepG2 cells); assay: ARE β-lactamase reporter gene assay; format: cell-based, human
[4] = test system: HepG2 cells
[5] = test system: Caenorhabditis elegans strain PE255; details: in vivo
[6] = test system: HepG2 cells; details: cited from earlier work
[7] = test system: HepG2 cells; assay: ROS-Glo hydrogen peroxide (ROS) assay; format: cell-based, human
[8] = test system: mitochondrial respiratory chain complex III; format: biochemical, rat
[9] = test system: Caenorhabditis elegans strain PE255; assay: In vivo C. elegans ATP status assay
[10] = test system: rat primary hepatocytes
[11] = test system: hNSC; assay: MMP assay in human neural stem cells (hNSC); format: cell-based
[12] = test system: Caenorhabditis elegans (Bristol N2); details: in vivo
[13] = test system: mitochondrial respiratory chain complex V; format: biochemical, rat
[14] = test system: isolated rat liver mitochondria; assay: Oxygen consumption, Clark-type oxygen electrode; format: biochemical
[15] = test system: Caenorhabditis elegans (Bristol N2); assay: C. elegans larval development and growth assay
[16] = test system: p53 (p53-bla HCT-116 cells); assay: p53 β-lactamase reporter gene assay; format: cell-based, human
[17] = test system: rat primary hepatocytes; assay: MMP assay in rat primary hepatocytes
[18] = test system: mitochondrial respiratory chain complex IV; format: biochemical, rat
[19] = molecular target: T1, mitochondrial respiratory chain complex II (Rattus norvegicus, UniProt P21913+Q641Z9+Q6PCT8+Q920L2); assay: Respiratory chain complex II activity; format: biochemical; details: tested up to 100μM
T1 construct: Submitochondrial particles were prepared by subjecting the intact rat mitochondria, isolated as described above, to three successive freeze–thaw cycles; from tissue; host or cells: rat liver mitochondria (submitochondrial particles)
T1 sequence (Q920L2 35-656): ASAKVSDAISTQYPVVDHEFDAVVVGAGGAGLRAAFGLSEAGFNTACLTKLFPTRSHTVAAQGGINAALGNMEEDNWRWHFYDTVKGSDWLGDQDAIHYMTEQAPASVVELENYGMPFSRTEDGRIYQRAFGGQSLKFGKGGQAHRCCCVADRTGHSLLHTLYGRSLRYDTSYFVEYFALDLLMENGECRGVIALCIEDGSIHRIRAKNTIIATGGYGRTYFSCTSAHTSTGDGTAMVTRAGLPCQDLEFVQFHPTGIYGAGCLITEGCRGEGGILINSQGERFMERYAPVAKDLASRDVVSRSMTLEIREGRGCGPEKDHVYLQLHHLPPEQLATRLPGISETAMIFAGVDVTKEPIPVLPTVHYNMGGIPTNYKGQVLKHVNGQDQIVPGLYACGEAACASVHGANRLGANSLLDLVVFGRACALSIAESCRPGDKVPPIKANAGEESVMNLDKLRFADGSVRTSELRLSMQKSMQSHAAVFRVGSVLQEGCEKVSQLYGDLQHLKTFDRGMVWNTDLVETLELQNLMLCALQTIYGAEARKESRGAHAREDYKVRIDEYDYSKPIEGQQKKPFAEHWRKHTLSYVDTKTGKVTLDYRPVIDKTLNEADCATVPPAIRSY
T1 sequence (P21913 31-282): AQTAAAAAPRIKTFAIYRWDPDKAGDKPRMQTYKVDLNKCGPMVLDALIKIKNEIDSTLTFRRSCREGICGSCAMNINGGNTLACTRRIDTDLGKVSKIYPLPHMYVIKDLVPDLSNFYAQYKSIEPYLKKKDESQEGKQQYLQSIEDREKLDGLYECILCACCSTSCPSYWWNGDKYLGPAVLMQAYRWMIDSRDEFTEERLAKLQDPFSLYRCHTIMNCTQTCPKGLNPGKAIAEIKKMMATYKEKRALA
T1 sequence (Q641Z9 1-169): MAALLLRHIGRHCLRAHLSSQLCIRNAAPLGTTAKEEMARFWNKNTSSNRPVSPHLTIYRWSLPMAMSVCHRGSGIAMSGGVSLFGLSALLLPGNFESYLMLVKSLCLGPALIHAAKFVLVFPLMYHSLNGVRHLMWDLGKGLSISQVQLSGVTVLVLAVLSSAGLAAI
T1 sequence (Q6PCT8 57-159): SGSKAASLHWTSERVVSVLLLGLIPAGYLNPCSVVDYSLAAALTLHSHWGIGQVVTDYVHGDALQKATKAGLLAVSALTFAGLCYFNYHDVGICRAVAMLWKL

[20] = test system: HepG2 cells; assay: Oxygen consumption, Seahorse XF24 analyzer; format: cell-based, human
[21] = test system: HeLa cells expressing YFP-Parkin; assay: Parkin translocation assay; format: cell-based, human

CO/C=C(/C(=O)OC)c1ccccc1COc1cccc(C(F)(F)F)n1 [Picoxystrobin]
ATP (HepG2, galactose) (efficacy) [1]: 3.08±0.64 ( −76.4±37.7 ) %
ATP (HepG2, glucose) (efficacy) [1]: 3.61±1.57 ( −76.4±30.3 ) %
IC50 ([1]; read-out: ATP (HepG2, galactose) IC50): 3.08 µM
IC50 ([1]; read-out: ATP (HepG2, glucose) IC50): 3.61 µM
Complex I % inhibition [2]: 13.2±3.23 at 20μM %
EC50 ([3]; 16 h incubation, mean±SD of three experiments, read-out: ARE (HepG2) EC50): 0.75 ± 0.49 µM
ARE (HepG2) (efficacy) ([3]; % of positive control): 57.6±7.85%
HepG2 (efficacy) Galactose (MMP) [4]: 24.4±4.56 ( −119±6.45 ) %
HepG2 (efficacy) Glucose (MMP) [4]: 13.6±14.5 ( −62.9±25.1 ) %
MMP assays efficacy (%) HepG2 [4]: -122%
IC50 ([4]; read-out: HepG2 IC50 Galactose (MMP)): 24.4 µM
IC50 ([4]; read-out: HepG2 IC50 Glucose (MMP)): 13.6 µM
IC50 ([4]; read-out: MMP assays IC50 (µM) HepG2): 1 µM
LEC (lowest effect concentration), ATP assay [5]: < 10 µM
MMP assays efficacy (%) qHTS-HepG2 [6]: -116±5%
IC50 ([6]; read-out: MMP assays IC50 (µM), qHTS-HepG2): 9.31 ± 2.67 µM
ROS (HepG2) (efficacy) [7]: 15.4±5.47 ( 36.2±2.46 ) %
EC50 ([7]; read-out: ROS (HepG2) EC50): 15.4 µM
inhibitory effect on Complex III at (concentration) [8]: 4 µM
Complex III % inhibition ([8]; at 4μM): 53.3±3.26 at 4μM %
LUM: mean difference in luminescence (ATP content) relative to plate controls ([9]; 0.5 µM): -0.02313
LUM: mean difference in luminescence (ATP content) relative to plate controls ([9]; 1 µM): -0.1059
LUM: mean difference in luminescence (ATP content) relative to plate controls ([9]; 5 µM): 0.5517
LUM: mean difference in luminescence (ATP content) relative to plate controls ([9]; 10 µM): 0.8678
LUM: mean difference in luminescence (ATP content) relative to plate controls ([9]; 25 µM): 0.0568
LUM: mean difference in luminescence (ATP content) relative to plate controls ([9]; 50 µM): 0.3665
LUM: mean difference in luminescence (ATP content) relative to plate controls ([9]; 75 µM): 0.468
LUM: mean difference in luminescence (ATP content) relative to plate controls ([9]; 100 µM): 0.877
effect on ATP content (in words) ([9]; 0.5–100μM): inhibited
LEC LUM: lowest effect concentration for luminescence, a measure of nematode ATP content ([9]; in vivo): 5 µM
MMP assays efficacy (%) Rat Hepatocytes [10]: -101+6%
Rat hepatocytes (efficacy) (MMP) [10]: 16.1±7.03 ( −77.3±9.18 ) %
hNSC (efficacy) (MMP) [11]: 38.2±0.00 ( −92.8±16.3 ) %
IC50 ([11]; read-out: hNSC IC50 (MMP)): 38.2 µM
LEC (lowest effect concentration), larval growth assay [12]: < 10 µM
Complex V % inhibition (activity call) [13]: Inactive
Potential Mechanism [14]: Inhibitor
effect on mitochondrial respiration (in words) [14]: effects similar to antimycin A
I-ADP, % of control (O2 consumption rate) ([14]; 0.0064 µM): 94 (43.2) % of control
I-sub, % of control (O2 consumption rate) ([14]; 0.0064 µM): 104 (11.7) % of control
II-ADP, % of control (O2 consumption rate) ([14]; 0.0064 µM): 81 (61.2) % of control
II-sub, % of control (O2 consumption rate) ([14]; 0.0064 µM): 101 (20.8) % of control
I-ADP, % of control (O2 consumption rate) ([14]; 0.032 µM): 84 (38.8) % of control
I-sub, % of control (O2 consumption rate) ([14]; 0.032 µM): 103 (11.5) % of control
II-ADP, % of control (O2 consumption rate) ([14]; 0.032 µM): 36 (27.2) % of control
II-sub, % of control (O2 consumption rate) ([14]; 0.032 µM): 74 (15.3) % of control
I-ADP, % of control (O2 consumption rate) ([14]; 0.16 µM): 50 (22.8) % of control
I-sub, % of control (O2 consumption rate) ([14]; 0.16 µM): 90 (10.1) % of control
II-ADP, % of control (O2 consumption rate) ([14]; 0.16 µM): 11 (7.9) % of control
II-sub, % of control (O2 consumption rate) ([14]; 0.16 µM): 41 (8.5) % of control
I-ADP, % of control (O2 consumption rate) ([14]; 0.8 µM): 16 (7.2) % of control
I-sub, % of control (O2 consumption rate) ([14]; 0.8 µM): 59 (6.6) % of control
II-ADP, % of control (O2 consumption rate) ([14]; 0.8 µM): 9 (7.1) % of control
II-sub, % of control (O2 consumption rate) ([14]; 0.8 µM): 33 (6.9) % of control
I-ADP, % of control (O2 consumption rate) ([14]; 4 µM): 9 (4.0) % of control
I-sub, % of control (O2 consumption rate) ([14]; 4 µM): 39 (4.4) % of control
II-ADP, % of control (O2 consumption rate) ([14]; 4 µM): 9 (6.6) % of control
II-sub, % of control (O2 consumption rate) ([14]; 4 µM): 33 (6.9) % of control
I-ADP, % of control (O2 consumption rate) ([14]; 20 µM): 9 (4.1) % of control
I-sub, % of control (O2 consumption rate) ([14]; 20 µM): 34 (3.8) % of control
II-ADP, % of control (O2 consumption rate) ([14]; 20 µM): 10 (7.4) % of control
II-sub, % of control (O2 consumption rate) ([14]; 20 µM): 36 (7.4) % of control
I-ADP, % of control (O2 consumption rate) ([14]; 100 µM): 8 (3.7) % of control
I-sub, % of control (O2 consumption rate) ([14]; 100 µM): 25 (3.9) % of control
II-ADP, % of control (O2 consumption rate) ([14]; 100 µM): 7 (4.7) % of control
II-sub, % of control (O2 consumption rate) ([14]; 100 µM): 16 (4.9) % of control
EXT: mean difference in nematode size relative to plate controls ([15]; 0.5 µM): 0.05428
EXT: mean difference in nematode size relative to plate controls ([15]; 1 µM): 0.004345
EXT: mean difference in nematode size relative to plate controls ([15]; 5 µM): 1.265
EXT: mean difference in nematode size relative to plate controls ([15]; 10 µM): 1.24
EXT: mean difference in nematode size relative to plate controls ([15]; 25 µM): 0.112
EXT: mean difference in nematode size relative to plate controls ([15]; 50 µM): 0.8304
EXT: mean difference in nematode size relative to plate controls ([15]; 75 µM): 0.6508
EXT: mean difference in nematode size relative to plate controls ([15]; 100 µM): 1.291
effect on larval growth (in words) ([15]; 0.5–100μM): inhibited
LEC EXT: lowest effect concentration for extinction, a measure of nematode size ([15]; in vivo): 5 µM
EC50 ([16]; 16 h incubation, mean±SD of three experiments): 6.68 ± 2.21 µM
p53 (HCT-116) (efficacy) ([16]; % of positive control): 40.2±19.6%
IC50 ([17]; read-out: MMP assays IC50 (µM) Rat Hepatocytes): 14.6 ± 4.7 µM
IC50 ([17]; read-out: Rat hepatocytes IC50 (MMP)): 16.1 µM
Complex IV % inhibition (activity call) [18]: Inactive
Complex II % inhibition (activity call) [19]: Inactive
Activity in oxygen consumption [20]: Inhibitor
Parkin recruitment [21]: Inactive
Parkin translocation into mitochondria (in words) ([21]; 3 h): did not induce Parkin translocation

Reference: paper PMC6112376, “Comprehensive Analyses and Prioritization of Tox21 10K Chemicals Affecting Mitochondrial Function by in-Depth Mechanistic Studies” (Environmental Health Perspectives, 2018)
